Measurements: PubChem BioAssay (NCI)
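Each compound was tested at five concentrations against cells in 96-well plates for 48 hours. Definition used: TGI = concentration required for complete inhibition of growth.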

Columns and labels:
Test in all cases: growth of human tumour cells (NCI), 48 h
NCI-H23 lung = system: NCI-H23 lung
NCI/ADR-RES ovarian = system: NCI/ADR-RES ovarian
T-47D breast = system: T-47D breast
A549 NSCLC = system: A549 NSCLC
HOP-92 NSCLC = system: HOP-92 NSCLC
UACC-62 melanoma = system: UACC-62 melanoma
UO-31 renal = system: UO-31 renal
NCI-H460 lung = system: NCI-H460 lung
TK-10 renal = system: TK-10 renal
SK-OV-3 ovarian = system: SK-OV-3 ovarian
EKVX NSCLC = system: EKVX NSCLC
ACHN renal = system: ACHN renal
NCI-H226 lung = system: NCI-H226 lung
SK-MEL-5 melanoma = system: SK-MEL-5 melanoma
SK-MEL-28 melanoma = system: SK-MEL-28 melanoma
MOLT-4 leukemia = system: MOLT-4 leukemia
A498 renal = system: A498 renal
CAKI-1 renal = system: CAKI-1 renal
SF-539 CNS = system: SF-539 CNS
OVCAR-4 ovarian = system: OVCAR-4 ovarian
MALME-3M melanoma = system: MALME-3M melanoma
HL-60(TB) leukemia = system: HL-60(TB) leukemia
MCF7 breast = system: MCF7 breast
HCT-15 colon = system: HCT-15 colon
HOP-62 NSCLC = system: HOP-62 NSCLC
OVCAR-8 ovarian = system: OVCAR-8 ovarian
UACC-257 melanoma = system: UACC-257 melanoma
K-562 leukemia = system: K-562 leukemia
SW-620 colon = system: SW-620 colon
SK-MEL-2 melanoma = system: SK-MEL-2 melanoma
OVCAR-5 ovarian = system: OVCAR-5 ovarian
NCI-H522 lung = system: NCI-H522 lung
HCC-2998 colon = system: HCC-2998 colon
MDA-MB-435 = system: MDA-MB-435
CCRF-CEM leukemia = system: CCRF-CEM leukemia
SF-295 CNS = system: SF-295 CNS
BT-549 breast = system: BT-549 breast
SNB-75 CNS = system: SNB-75 CNS
COLO 205 colon = system: COLO 205 colon
KM12 colon = system: KM12 colon
SF-268 CNS = system: SF-268 CNS
HT29 colon = system: HT29 colon
HS 578T breast = system: HS 578T breast
SR leukemia = system: SR leukemia
DU-145 prostate = system: DU-145 prostate
PC-3 prostate = system: PC-3 prostate
LOX IMVI melanoma = system: LOX IMVI melanoma
SN12C renal = system: SN12C renal
786-0 renal = system: 786-0 renal
HCT-116 colon = system: HCT-116 colon
MDA-MB-231 breast = system: MDA-MB-231 breast
MDA-N = system: MDA-N
OVCAR-3 ovarian = system: OVCAR-3 ovarian
IGROV1 ovarian = system: IGROV1 ovarian
RPMI-8226 leukemia = system: RPMI-8226 leukemia
RXF 393 renal = system: RXF 393 renal
SNB-19 CNS = system: SNB-19 CNS
U251 CNS = system: U251 CNS
M14 melanoma = system: M14 melanoma

For CN(C)CCCNC(=O)c1c(O)c2ccccc2[nH]c1=O, the TGI (NCI-H23 lung) was greater than 100 µM, the TGI (NCI/ADR-RES ovarian) was greater than 100 µM and the TGI (T-47D breast) was greater than 100 µM. The TGI (A549 NSCLC) was greater than 100 µM, the TGI (HOP-92 NSCLC) was greater than 100 µM and the TGI (UACC-62 melanoma) was greater than 100 µM. For the same compound, the TGI (UO-31 renal) was 58.6 µM, the TGI (NCI-H460 lung) was greater than 100 µM and the TGI (TK-10 renal) was greater than 100 µM. For the same compound, the TGI (SK-OV-3 ovarian) was greater than 100 µM, the TGI (EKVX NSCLC) was greater than 100 µM and the TGI (ACHN renal) was greater than 100 µM. The TGI (NCI-H226 lung) was greater than 100 µM, the TGI (SK-MEL-5 melanoma) was greater than 100 µM and the TGI (SK-MEL-28 melanoma) was greater than 100 µM. The TGI (MOLT-4 leukemia) was greater than 100 µM, the TGI (A498 renal) was greater than 100 µM and the TGI (CAKI-1 renal) was greater than 100 µM. It also gave a TGI (SF-539 CNS) greater than 100 µM, a TGI (OVCAR-4 ovarian) greater than 100 µM and a TGI (MALME-3M melanoma) greater than 100 µM. The TGI (HL-60(TB) leukemia) was greater than 100 µM, the TGI (MCF7 breast) was greater than 100 µM and the TGI (HCT-15 colon) was greater than 100 µM. For the same compound, the TGI (HOP-62 NSCLC) was greater than 100 µM, the TGI (OVCAR-8 ovarian) was greater than 100 µM and the TGI (UACC-257 melanoma) was greater than 100 µM. For the same compound, the TGI (K-562 leukemia) was greater than 100 µM, the TGI (SW-620 colon) was greater than 100 µM and the TGI (SK-MEL-2 melanoma) was greater than 100 µM. For the same compound, the TGI (OVCAR-5 ovarian) was greater than 100 µM, the TGI (NCI-H522 lung) was greater than 100 µM and the TGI (HCC-2998 colon) was greater than 100 µM. It also gave a TGI (MDA-MB-435) greater than 100 µM, a TGI (CCRF-CEM leukemia) greater than 100 µM and a TGI (SF-295 CNS) greater than 100 µM. The TGI (BT-549 breast) was greater than 100 µM, the TGI (SNB-75 CNS) was greater than 100 µM and the TGI (COLO 205 colon) was greater than 100 µM. The TGI (KM12 colon) was greater than 100 µM, the TGI (SF-268 CNS) was greater than 100 µM and the TGI (HT29 colon) was greater than 100 µM. The TGI (HS 578T breast) was greater than 100 µM, the TGI (SR leukemia) was greater than 100 µM and the TGI (DU-145 prostate) was greater than 100 µM. For the same compound, the TGI (PC-3 prostate) was greater than 100 µM, the TGI (LOX IMVI melanoma) was greater than 100 µM and the TGI (SN12C renal) was greater than 100 µM. For the same compound, the TGI (786-0 renal) was greater than 100 µM, the TGI (HCT-116 colon) was greater than 100 µM and the TGI (MDA-MB-231 breast) was greater than 100 µM. It also gave a TGI (MDA-N) greater than 100 µM, a TGI (OVCAR-3 ovarian) greater than 100 µM and a TGI (IGROV1 ovarian) greater than 100 µM. It also gave a TGI (RPMI-8226 leukemia) greater than 100 µM and a TGI (RXF 393 renal) greater than 100 µM.
O=[N+]([O-])c1c(F)c(F)c2c(c1F)Nc1ccccc1S2 was tested, and the TGI (NCI-H23 lung) was 7.13 µM, the TGI (NCI/ADR-RES ovarian) was 59.7 µM and the TGI (T-47D breast) was 12.1 µM. For the same compound, the TGI (A549 NSCLC) was 36.9 µM, the TGI (HOP-92 NSCLC) was 31 µM and the TGI (UACC-62 melanoma) was 20.4 µM. It also gave a TGI (UO-31 renal) of 34 µM, a TGI (NCI-H460 lung) of 41.8 µM and a TGI (TK-10 renal) of 38.4 µM. For the same compound, the TGI (SK-OV-3 ovarian) was 35.9 µM, the TGI (EKVX NSCLC) was 16 µM and the TGI (ACHN renal) was 29.1 µM. It also gave a TGI (NCI-H226 lung) of 35.2 µM, a TGI (SK-MEL-5 melanoma) of 23.8 µM and a TGI (SK-MEL-28 melanoma) of 5.74 µM. The TGI (MOLT-4 leukemia) was 6.57 µM, the TGI (A498 renal) was 30.4 µM and the TGI (CAKI-1 renal) was 8.24 µM. The TGI (SF-539 CNS) was 39.6 µM, the TGI (OVCAR-4 ovarian) was 6.59 µM and the TGI (MALME-3M melanoma) was 18.5 µM. The TGI (HL-60(TB) leukemia) was 16.1 µM, the TGI (MCF7 breast) was 17.8 µM and the TGI (HCT-15 colon) was 12.6 µM. The TGI (HOP-62 NSCLC) was 27.6 µM, the TGI (OVCAR-8 ovarian) was 3.89 µM and the TGI (UACC-257 melanoma) was 19.8 µM. It also gave a TGI (K-562 leukemia) greater than 100 µM, a TGI (SW-620 colon) of 6.28 µM and a TGI (SK-MEL-2 melanoma) of 4.75 µM. The TGI (OVCAR-5 ovarian) was 26.5 µM, the TGI (NCI-H522 lung) was 10.9 µM and the TGI (HCC-2998 colon) was 6.96 µM. It also gave a TGI (SNB-19 CNS) of 19.2 µM, a TGI (MDA-MB-435) of 14.4 µM and a TGI (CCRF-CEM leukemia) of 6.46 µM. The TGI (SF-295 CNS) was 34.2 µM, the TGI (BT-549 breast) was 25.8 µM and the TGI (U251 CNS) was 3.9 µM. For the same compound, the TGI (SNB-75 CNS) was 32.6 µM, the TGI (COLO 205 colon) was 27.3 µM and the TGI (KM12 colon) was 15.5 µM. It also gave a TGI (SF-268 CNS) of 6 µM, a TGI (HT29 colon) of 3.63 µM and a TGI (HS 578T breast) of 28.6 µM. For the same compound, the TGI (SR leukemia) was 5.61 µM, the TGI (DU-145 prostate) was 13.3 µM and the TGI (PC-3 prostate) was 22.4 µM. It also gave a TGI (LOX IMVI melanoma) of 3.39 µM, a TGI (SN12C renal) of 12.8 µM and a TGI (786-0 renal) of 21.6 µM. It also gave a TGI (HCT-116 colon) of 6.18 µM, a TGI (M14 melanoma) of 10.4 µM and a TGI (MDA-MB-231 breast) of 4.76 µM. For the same compound, the TGI (MDA-N) was 14.5 µM, the TGI (OVCAR-3 ovarian) was 4.1 µM and the TGI (IGROV1 ovarian) was 8.64 µM. For the same compound, the TGI (RPMI-8226 leukemia) was 27.2 µM and the TGI (RXF 393 renal) was 8.88 µM.
